Calls of active or inactive are those of the source. The rule behind the calls is not given here.
Legend:
Brassica juncea = test: Herbicidal activity against Brassica juncea assessed as growth inhibition at 150 g/ha; type: functional, organism-based
Eclipta prostrata = test: Herbicidal activity against Eclipta prostrata assessed as growth inhibition at 150 g/ha; type: functional; conditions: for inhibition of growth at 150 g/ha: read-out: GI
Echinochloa crus-galli = test: Herbicidal activity against Echinochloa crus-galli (barnyard grass) assessed as growth inhibition at 150 g/ha; type: functional, organism-based
Amaranthus retroflexus = test: Herbicidal activity against Amaranthus retroflexus assessed as growth inhibition at 150 g/ha; type: functional, organism-based
Poa annua = test: Herbicidal activity against Poa annua assessed as growth inhibition at 150 g/ha; type: functional, organism-based
Digitaria sanguinalis = test: Herbicidal activity against Digitaria sanguinalis (hairy crabgrass) assessed as growth inhibition at 150 g/ha; type: functional, organism-based

CO/C=C(/C(=O)OC)c1ccccc1Cn1c(C)nn(-c2cc(NS(C)(=O)=O)c(Cl)cc2F)c1=O
growth inhibition (GI) (Brassica juncea): inactive | growth inhibition (GI) (Eclipta prostrata): inactive | growth inhibition (GI) (Echinochloa crus-galli): inactive | growth inhibition (GI) (Amaranthus retroflexus): inactive | growth inhibition (GI) (Poa annua): inactive | growth inhibition (GI) (Digitaria sanguinalis): inactive

CO/C=C(/C(=O)OC)c1ccccc1Cn1c(C)nn(-c2cc(NS(C)(=O)=O)c(Cl)cc2Cl)c1=O
growth inhibition (GI) (Brassica juncea): inactive | growth inhibition (GI) (Eclipta prostrata): inactive | growth inhibition (GI) (Echinochloa crus-galli): inactive | growth inhibition (GI) (Amaranthus retroflexus): inactive | growth inhibition (GI) (Poa annua): inactive | growth inhibition (GI) (Digitaria sanguinalis): inactive

CO/N=C(/C(=O)OC)c1ccccc1Cn1c(C)nn(-c2cc(NS(C)(=O)=O)c(Cl)cc2F)c1=O
growth inhibition (GI) (Brassica juncea): inactive | growth inhibition (GI) (Eclipta prostrata): inactive | growth inhibition (GI) (Echinochloa crus-galli): inactive | growth inhibition (GI) (Amaranthus retroflexus): inactive | growth inhibition (GI) (Poa annua): inactive | growth inhibition (GI) (Digitaria sanguinalis): inactive

CO/N=C(/C(=O)OC)c1ccccc1Cn1c(C)nn(-c2cc(NS(=O)(=O)c3ccccc3)c(Cl)cc2F)c1=O
growth inhibition (GI) (Brassica juncea): inactive | growth inhibition (GI) (Eclipta prostrata): inactive | growth inhibition (GI) (Echinochloa crus-galli): inactive | growth inhibition (GI) (Amaranthus retroflexus): inactive | growth inhibition (GI) (Poa annua): inactive | growth inhibition (GI) (Digitaria sanguinalis): inactive

CO/N=C(/C(=O)OC)c1ccccc1Cn1c(C)nn(-c2cc(NS(C)(=O)=O)c(Cl)cc2Cl)c1=O
growth inhibition (GI) (Brassica juncea): inactive | growth inhibition (GI) (Eclipta prostrata): inactive | growth inhibition (GI) (Echinochloa crus-galli): inactive | growth inhibition (GI) (Amaranthus retroflexus): inactive | growth inhibition (GI) (Poa annua): inactive | growth inhibition (GI) (Digitaria sanguinalis): inactive

CCS(=O)(=O)Nc1cc(-n2nc(C)n(Cc3ccccc3/C(=C\OC)C(=O)OC)c2=O)c(Cl)cc1Cl
growth inhibition (GI) (Brassica juncea): inactive | growth inhibition (GI) (Eclipta prostrata): inactive | growth inhibition (GI) (Echinochloa crus-galli): inactive | growth inhibition (GI) (Amaranthus retroflexus): inactive | growth inhibition (GI) (Poa annua): inactive | growth inhibition (GI) (Digitaria sanguinalis): inactive

CCS(=O)(=O)Nc1cc(-n2nc(C)n(Cc3ccccc3/C(=N\OC)C(=O)OC)c2=O)c(Cl)cc1Cl
growth inhibition (GI) (Brassica juncea): inactive | growth inhibition (GI) (Eclipta prostrata): inactive | growth inhibition (GI) (Echinochloa crus-galli): inactive | growth inhibition (GI) (Amaranthus retroflexus): inactive | growth inhibition (GI) (Poa annua): inactive | growth inhibition (GI) (Digitaria sanguinalis): inactive

COC(=O)N(OC)c1ccccc1Cn1c(C)nn(-c2cc(NS(C)(=O)=O)c(Cl)cc2Cl)c1=O
growth inhibition (GI) (Brassica juncea): inactive | growth inhibition (GI) (Eclipta prostrata): inactive | growth inhibition (GI) (Echinochloa crus-galli): inactive | growth inhibition (GI) (Amaranthus retroflexus): inactive | growth inhibition (GI) (Poa annua): inactive | growth inhibition (GI) (Digitaria sanguinalis): inactive

COC(=O)N(OC)c1ccccc1Cn1c(C)nn(-c2cc(NS(=O)(=O)c3ccccc3)c(Cl)cc2Cl)c1=O
growth inhibition (GI) (Brassica juncea): inactive | growth inhibition (GI) (Eclipta prostrata): inactive | growth inhibition (GI) (Echinochloa crus-galli): Active | growth inhibition (GI) (Amaranthus retroflexus): inactive | growth inhibition (GI) (Poa annua): Active | growth inhibition (GI) (Digitaria sanguinalis): Active

CCS(=O)(=O)Nc1cc(-n2nc(C)n(Cc3ccccc3/C(=C\OC)C(=O)OC)c2=O)c(F)cc1Cl
growth inhibition (GI) (Brassica juncea): inactive | growth inhibition (GI) (Eclipta prostrata): inactive | growth inhibition (GI) (Echinochloa crus-galli): inactive | growth inhibition (GI) (Amaranthus retroflexus): inactive | growth inhibition (GI) (Poa annua): inactive | growth inhibition (GI) (Digitaria sanguinalis): inactive

CCS(=O)(=O)Nc1cc(-n2nc(C)n(Cc3ccccc3N(OC)C(=O)OC)c2=O)c(F)cc1Cl
growth inhibition (GI) (Brassica juncea): inactive | inhibition of growth at 150 g/ha (Eclipta prostrata): 70% | growth inhibition (GI) (Echinochloa crus-galli): inactive | growth inhibition (GI) (Amaranthus retroflexus): inactive | growth inhibition (GI) (Poa annua): inactive | growth inhibition (GI) (Digitaria sanguinalis): inactive

CO/C=C(/C(=O)OC)c1ccccc1Cn1c(C)nn(-c2cc(NS(=O)(=O)c3ccccc3)c(Cl)cc2F)c1=O
growth inhibition (GI) (Brassica juncea): inactive | growth inhibition (GI) (Eclipta prostrata): inactive | growth inhibition (GI) (Echinochloa crus-galli): inactive | growth inhibition (GI) (Amaranthus retroflexus): inactive | growth inhibition (GI) (Poa annua): inactive | growth inhibition (GI) (Digitaria sanguinalis): inactive

CCS(=O)(=O)Nc1cc(-n2nc(C)n(Cc3ccccc3N(OC)C(=O)OC)c2=O)c(Cl)cc1Cl
growth inhibition (GI) (Brassica juncea): inactive | growth inhibition (GI) (Eclipta prostrata): inactive | growth inhibition (GI) (Echinochloa crus-galli): Active | growth inhibition (GI) (Amaranthus retroflexus): inactive | growth inhibition (GI) (Poa annua): Active | growth inhibition (GI) (Digitaria sanguinalis): Active

CO/N=C(/C(=O)OC)c1ccccc1Cn1c(C)nn(-c2cc(NS(=O)(=O)c3ccccc3)c(Cl)cc2Cl)c1=O
growth inhibition (GI) (Brassica juncea): inactive | inhibition of growth at 150 g/ha (Eclipta prostrata): 70% | growth inhibition (GI) (Echinochloa crus-galli): inactive | growth inhibition (GI) (Amaranthus retroflexus): inactive | growth inhibition (GI) (Poa annua): inactive | growth inhibition (GI) (Digitaria sanguinalis): inactive

CO/C=C(/C(=O)OC)c1ccccc1Cn1c(C)nn(-c2cc(NS(=O)(=O)c3ccccc3)c(Cl)cc2Cl)c1=O
growth inhibition (GI) (Brassica juncea): inactive | growth inhibition (GI) (Eclipta prostrata): inactive | growth inhibition (GI) (Echinochloa crus-galli): inactive | growth inhibition (GI) (Amaranthus retroflexus): inactive | growth inhibition (GI) (Poa annua): inactive | growth inhibition (GI) (Digitaria sanguinalis): inactive

COC(=O)N(OC)c1ccccc1Cn1c(C)nn(-c2cc(NS(C)(=O)=O)c(Cl)cc2F)c1=O
growth inhibition (GI) (Brassica juncea): inactive | inhibition of growth at 150 g/ha (Eclipta prostrata): 70% | growth inhibition (GI) (Echinochloa crus-galli): inactive | growth inhibition (GI) (Amaranthus retroflexus): inactive | growth inhibition (GI) (Poa annua): inactive | growth inhibition (GI) (Digitaria sanguinalis): inactive

COC(=O)N(OC)c1ccccc1Cn1c(C)nn(-c2cc(NS(=O)(=O)c3ccccc3)c(Cl)cc2F)c1=O
growth inhibition (GI) (Brassica juncea): inactive | growth inhibition (GI) (Eclipta prostrata): inactive | growth inhibition (GI) (Echinochloa crus-galli): inactive | growth inhibition (GI) (Amaranthus retroflexus): inactive | growth inhibition (GI) (Poa annua): inactive | growth inhibition (GI) (Digitaria sanguinalis): inactive
